For data set [1], the system named is lung adenocarcinoma cell line H441. Briefly: Cell proliferation (hexosaminidase assay) in lung adenocarcinoma H441 cells, Example 1. The following applies: for IC50: Homo sapiens, NCI-H441, 24 h of treatment. Type of data set: cell-based, human. As to the method: Cell Proliferation Studies: In order to assess the anti-proliferative activity of the synthesized compounds, an in vitro cell culture system of lung adenocarcinoma cell line H441 was used. The cell detachment and anti-proliferative activity was measured as a decrease in hexosaminidase enzyme activity associated with remainder of the adhered cells. [Landegren, 1984] […] The concentration versus cell proliferation plots were analyzed by an exponential fit (Table 1). The results were compared with the anti-proliferative activity of compound 1.
Cell Culture and drug treatment: Human lung adenocarcinoma cell line NCI-H441 (ATCC Number: HTB-174) was obtained from the American Type Culture Collection (Manassas, Va.). H441 cells were maintained at 37° C. with 5% CO2 in McCoy's 5A Medium (Invitrogen, Carlsbad, Calif.) supplemented with 5% heat-inactivated fetal bovine serum (FBS). All media contained gentamicin at 50 μg/ml (GIBCO Laboratories, Grand Island, N.Y.). Other cells lines (PANC-1, MiaPaCa-2 and PC-3) were also similarly maintained, except that the cell culture medium was RPMI 1640 instead of McCoy's.
To evaluate the anti-proliferative activity of synthesized bis(2-fluorobenzylidene)-4-piperidone and its derivatives, the cells were seeded in 96-well flat-bottom tissue culture plates at a density of 10×10^3 cells per well. The cells were allowed to attach and grow overnight. The test compounds were solubilized in dimethyl sulfoxide (DMSO), filtered through 0.2 μm nylon filter and added to cells at 1, 10, 25 and 100 μM concentrations in culture medium supplemented with 5% FBS. The DMSO concentration was maintained at 0.1% per well. Control wells received equivalent volume of DMSO without any test compounds. The cells were allowed to remain in the treatment medium for 24, 48 and 72 hours.
Cell Proliferation: The total number of cells after the treatment period was estimated by the hexosaminidase assay. [Landegren, 1984] Briefly, the medium was removed and hexosaminidase substrate solution in citrate buffer pH 5 (7.5 mM), […] (Calbiochem, San Diego, Calif.) was added at 60 μl per well. The plate was incubated at 37° C. in 100% humidity for 30 minutes, before stopping the reaction with 90 μl of 50 mM glycine containing 5 mM of EDTA (pH 10.4). The absorbance was measured at 405 nm. The experiments were conducted in triplicate, and repeated at least twice. The data were analyzed as percent of control, where the control wells were treated with equivalent amounts of DMSO alone, and the analyzed data was presented as average±standard error of mean. The differences among mean values were deemed significant at p<0.05.
For IC50 calculations, a plot between the drug concentration and hexosaminidase activity was generated and the data was fitted either linearly or exponentially. The best fit was used for further processing of data.

Data set [2] can be described thus: Histopathology of liver, lung and kidney. The format is in vivo. The following applies: rats treated with CLEFMA liposomes. From the text: After the animals were euthanized, a part of the liver, lung and kidney were fixed in 10% formalin. The formalin-preserved tissues were used for histology by staining 5 μm sections of paraffin-embedded tissues with H&E stain. The sections were read by a veterinary pathologist (OUHSC, Oklahoma City) in a blinded fashion for the presence of necrosis, hemorrhage, inflammation or any other pathological changes.

For another data set, the system named is H441 cells. Briefly: Reactive oxygen species assay (DCFH-DA) in H441 cells. The format is cell-based, human. The note with it: 24 and 48 h. The procedure:
Reactive oxygen species (ROS) assay: The CLEFMA-induced generation of ROS in H441 and CCL-151 cells was measured using the OxiSelect assay kit (Cell Biolabs, Inc., San Diego, Calif.). Briefly, the cells were cultured in 96-well plates, and the cell-permeable fluorogenic probe 2′,7′-dichlorodihydrofluorescin diacetate (DCFH-DA) was added to the wells and the plate was incubated for 30-60 min. The wells were washed thrice with PBS and treated with CLEFMA in culture medium for 24 and 48 h. After the incubation period, the medium was removed and the cells were gently washed 2-3 times with PBS, and the fluorescence, indicating ROS activity, was measured at 480 nm/530 nm (excitation/emission wavelengths) using the Cytoflour 2300 (Millipore, Billerica, Mass.).

For a further data set, the system named is Nrf2. Nature of the data set: Nuclear extract immunoblot of phospho-Nrf2. Type of data set: cell-based, human. The note with it: H441 cells, nuclear fraction. As to the method: Nuclear extract and immunoblotting: Nuclear extract was prepared using a kit from Active Motif (Carlsbad, Calif.) following the manufacturer's instructions. Briefly, H441 cells were allowed to grow for 24 h in 6-well plates before treatment with CLEFMA. After 12 or 24 h, the cells were scraped into ice-cold PBS and centrifuged at 300×g for 5 min to obtain a pellet. The pelleted cells was resuspended in a hypotonic buffer (20 mM HEPES, pH 7.5, 5 mM NaF, 0.1 mM EDTA, and 0.01 mM Sodium molybdate) and allowed to swell for 15 min on ice. The cells were lysed by adding 50 μl 10% Nonidet P-40 and centrifuged for 30 sec to separate the cytoplasmic and nuclear fractions. The nuclear fraction was extracted after 30 min in an ice-cold complete lysis buffer obtained with the kit. The nuclear extract was separated by centrifugation for 10 min at 14,000×g at 4° C. To immunoblot nuclear factor-erythroid 2-related factor 2 (Nrf2), the nuclear protein (10 μg) was separated on a 4/20% SDS-PAGE gel, transferred onto nitrocellulose membrane and probed with rabbit anti-phospho-Nrf2 antibody and HRP-conjugated goat anti-rabbit IgG antibody. The chemiluminescence signal was developed by Pierce SuperSignal West Femto reagent (Thermo Scientific, Rockford, Ill.). Equal protein loading was confirmed by stripping the blot and re-probing it with anti-actin antibody. […]
On the technique in general: In western blotting, separated proteins are transferred to a membrane and probed.

The structures appear in SMILES notation. Like-named read-outs stand apart in the source and are kept apart here. Some results are limits rather than exact numbers.

For `O=C(O)C=CC(=O)N1CC(=Cc2ccccc2Cl)C(=O)C(=Cc2ccccc2Cl)C1` [Compound 29, 4-[3,5-Bis-(2-chlorobenzylidene)-4-oxo-piperidin-1-yl]-4-oxo-2-butenoic acid], the “anti-proliferative activity in words, relative to the comparator named” value in data set [1] is listed as “enhanced the potency of antiproliferative action”. Also, the 50% inhibitory concentration (IC50) – broadly, the concentration needed to halve the response being measured – in data set [1] (1-100 μM tested, fitted plot, read-out: IC50 value) was 1 µM; in data set [1] (read-out: IC50 (grouping relative to compound 1)), below 30 µM. For the same compound, the “histopathological toxicity in liver, lung and kidney” value in data set [2] was “no toxicities in these tissues”. For the same compound, the ROS generation entry in the data set with H441 cells was “generated ROS in a dose- and time-dependent fashion”. The “Nrf2 activation and nuclear translocation” value in the data set with Nrf2 is “activated Nrf2 and caused its translocation into the nuclear fraction”.

Source of the values: US9359196B2, “Antiproliferative compositions comprising curcumin analogs and methods of producing and using same” (The Board of Regents of the University of Oklahoma, priority 2009, dated 2016).
